Measurements published in patent US20250136617A1 (The Regents of the University of Colorado, A Body Corporate, priority 2022, published 2025).
Where two headings read alike, the source gives them in different places.

Assays:
[1] = test system: CEM-CCRF human lymphoblast cells; assay: Transwell migration assay in CEM-CCRF lymphoblasts; assay type: cell-based; conditions: for EC50: read-out: Migration CEM EC50
Experimental: Thus, to confirm CXCR4 functional activity, UCUF-728 was evaluated in a 96 w transwell migration assay in CEM human lymphoblast cells.
CEM-CCRF (ATCC CCL-119) were suspended in RPMI 1640 (Corning; 10-040-CV) at 5.0×10^5 cells/mL and allowed to incubate in cell culture incubator at 37° C. with 5% CO2 for one hour. […] Plates were reassembled and placed in a cell culture incubator at 37° C. with 5% CO2 for three hours. After incubation, Multi-Screen plate was disassembled and 100 μl of solution was collected from compound receiver tray and transferred to 96 well luminescent plate (Thermo Scientific; 265302) and an equal volume of ATPLite Istep luminescence reagent (Perkin Elmer, Waltham, MA; 6016731) was added to each well. Luminescence was measured using the CLARIOstar Plus (BMG LABTECH Inc., Cary, NC).

CXCR4 = CXCR4 (Homo sapiens, UniProt P61073); assay: β-arrestin recruitment, 384-well, Tango CXCR4-bla U2OS cells, normalized to SDF-1α; assay type: cell-based; parameters: host or cells: U2OS; conditions: for Emax: U2OS, read-out: TANGO β-arrestin Emax (%); for ß-arrestin recruitment Emax (%): normalized to maximal SDF-1α response
Experimental: Tango™ CXCR4-bla U2OS Cells (Invitrogen; K1779) were used for (β-arrestin recruitment assays and maintained as a monolayer culture in McCoy's 5a (Corning; 10-050-CV) supplemented with 10% dialyzed Fetal Bovine Serum (Gibco; 26400-044), 0.1 mM MEM Non-essential amino acids solution, 25 mM HEPES solution (Corning; 25-060-CI), 1 mM Sodium Pyruvate (Gibco; 11360-070), 200 μg/mL Zeocin selection reagent (Gibco; R25001), 50 μg/mL Hygromycin B (Gibco, 10687010), and 100 μg/mL Geneticin (G418 Sulfate) (Gibco, 10131035). U2OS cells were subcultured twice weekly by 0.05% Trypsin-EDTA treatment (Corning; 25-051-CI) and passaged to continue exponential growth phase for cell signaling assays. All cell cultures were maintained in cell culture incubators at 37° C. with 5% CO2. CHO-K1 CXCR4 cells (DiscoverX, Fremont, CA, USA) were used for cAMP inhibition assays and maintained as a monolayer culture in DMEM/F12 (Corning; 10-091-CV) supplemented with 10% Fetal Bovine Serum (Corning; 35-011-CV) and 100IU penicillin, […] streptomycin sulfate (Corning; 30-002-CI) and […] G418 (Gibco; 101310350. Cells were subculture 2 times weekly by o.o5% Trypsin-EDTA treatment (Corning; 25-051-CI) and passaged to continue exponential growth phase for cell signaling assays. All cell cultures were maintained in cell culture incubators at 37° C. with 5% CO2.CEM-CCRF cells (ATCC CCL-119) were used in both the migration and calcium flux assays and were cultured in growth media consisting of RPMI 1640 (Corning; 10-040-CV) supplemented with 10% Fetal Bovine Serum (Corning; 35-011-CV), and 100 IU penicillin, […] streptomycin sulfate (Corning; 30-002-CI). Cells were maintained in suspension and sub-cultured twice weekly to maintain cell densities between 0.8×10^6 cells/mL and 2.5×10^6 cells/mL to maintain exponential growth phase. Cells were harvested for use in migration and calcium flux assays at 2.0×10^6 cells/mL to 2.5×10^6 cells/mL and resuspended in assay media to desired density for respective experiments.
Tango™ CXCR4-bla U2OS Cells were resuspended in assay media consisting of DMEM (Corning; Corning, NY) supplemented with 1% dialyzed Fetal bovine serum, 0.1 mM MEM Non-essential amino acids solution, 25 mM HEPES solution (Corning; Corning, NY), 1 mM Sodium Pyruvate and 100 IU penicillin, […] streptomycin sulfate (Corning; Corning, NY) at a density of 3.0×10^5 cells/ml. Assay media FreeStyle 293 expression Medium (Gibco; 12338018) was used for testing the thiadiazine scaffold CXCR4 agonists. Cells suspension was dispensed at 30 μl per well into assay plate and incubated overnight in a cell culture incubator at 37° C. with 5% CO2. […] Following overnight incubation, LiveBlazer FRET B/G Loading Kit (Invitrogen; K1095) working reagent was prepared according to supplier guidelines and 6 μl of solution was dispensed into each well; 8 μL of solution for testing the thiadiazine scaffold CXCR4 agonists. Assay plate was covered and incubated in a dark place for two hours and Fluorescence Intensity was measured using the BMG LABTECH CLARIOstar Plus (BMG LABTECH Inc., Cary, NC) according to the LiveBlazer FRET B/G Loading Kit excitation and emission measurement guidelines.
Results are expressed as mean±SD for 3 to 5 independent experiments. Statistically significant differences in gene expression between two groups were assessed by Student's T-test, ANOVA with an appropriate post hoc test was be used for multiple comparisons. P<0.05 was considered to be statistically significant. All concentration response curves were analyzed to determine EC50 and Emax using the following equation:
where Y is the normalized response (0-100%), X is the log of concentration of compound tested, and the Hill slope is equal to 1.0% and 100% activity are specific to each assay. […]

[2] = normalized to SDF-1, read-out: TANGO β-arrestin EC50
[3] = normalized to SDF-1α, read-out: ß-arrestin recruitment EC50

Sequence of CXCR4 (P61073 whole entry): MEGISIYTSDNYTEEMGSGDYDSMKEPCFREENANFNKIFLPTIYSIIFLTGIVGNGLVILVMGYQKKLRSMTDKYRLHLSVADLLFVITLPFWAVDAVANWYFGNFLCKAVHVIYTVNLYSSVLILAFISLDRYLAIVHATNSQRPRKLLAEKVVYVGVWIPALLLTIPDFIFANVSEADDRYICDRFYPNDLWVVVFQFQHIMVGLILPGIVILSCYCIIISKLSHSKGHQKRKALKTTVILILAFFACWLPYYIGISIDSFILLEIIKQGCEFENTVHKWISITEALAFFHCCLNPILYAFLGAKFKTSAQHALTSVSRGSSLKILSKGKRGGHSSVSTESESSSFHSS

SMILES	Migration CEM Emax (%) [1]	EC50 [1]	TANGO β-arrestin Emax (%) (CXCR4; normalized to SDF-1)	EC50 (CXCR4; [2])	Emax ([1]; Homo sapiens)	EC50 ([1]; Homo sapiens)	Emax (CXCR4; normalized to SDF-1)	EC50 (CXCR4; [3])	ß-arrestin recruitment Emax (%) (CXCR4)
CCOc1ccccc1-c1nnc2n1N=C(c1ccc(NC(=O)C3CC3)cc1)CS2 [Entry 32]	C (C ≤ 35)	< 5 µM	A (A ≥ 70)	< 5 µM	–	–	–	–	–
CCOc1ccccc1-c1nnc2n1N=C(c1ccc(NC(=O)c3ccccc3)cc1)CS2 [Entry 34]	–	–	–	< 5 µM	< 35%	< 5 µM	35 to 70%	–	–
CCOc1ccccc1-c1nnc2n1N=C(c1ccc(NC(=O)c3ccccc3C(=O)O)cc1)CS2 [Entry 35]	–	–	–	> 10 µM	–	> 10 µM	–	–	–
CCOc1ccccc1-c1nnc2n1N=C(c1ccc(NC(=O)c3cccc(C(=O)OC)c3)cc1)CS2 [Entry 36]	–	–	–	> 10 µM	–	> 10 µM	–	–	–
CCOc1ccccc1-c1nnc2n1N=C(c1ccc(NC(=O)c3ccc(C(=O)OC)cc3)cc1)CS2 [Entry 37]	–	–	–	> 10 µM	–	> 10 µM	–	–	–
CCOC(=O)CNc1ccc(C2=Nn3c(nnc3-c3ccccc3OCC)SC2)cc1 [Entry 40]	C (C ≤ 35)	5 to 50 µM	C (C ≤ 35)	< 5 µM	–	–	–	> 5 µM	–
CCOC(=O)CCNc1ccc(C2=Nn3c(nnc3-c3ccccc3OCC)SC2)cc1 [Entry 41]	–	–	–	< 5 µM	< 35%	< 5 µM	35 to 70%	–	–
C#CCCCNc1ccc(C2=Nn3c(nnc3-c3ccccc3OCC)SC2)cc1 [Entry 43]	C (C ≤ 35)	–	C (C ≤ 35)	< 5 µM	–	–	–	–	–
CCOc1ccccc1-c1nnc2n1N=C(c1ccc(NC3CCCC3)cc1)CS2 [Entry 45]	C (C ≤ 35)	< 5 µM	C (C ≤ 35)	< 5 µM	–	–	–	1.4 µM	31%
CCOc1ccccc1-c1nnc2n1N=C(c1ccc(NC3CCCCC3)cc1)CS2 [Entry 46]	C (C ≤ 35)	< 5 µM	C (C ≤ 35)	< 5 µM	–	–	–	0.77 µM	10%
CCOc1ccccc1-c1nnc2n1N=C(c1ccc(NCc3ccccc3)cc1)CS2 [Entry 47]	–	–	–	> 10 µM	–	> 10 µM	–	–	–
CCOc1ccccc1-c1nnc2n1N=C(c1ccc(NCC3CC3)cc1)CS2 [Entry 48]	–	–	–	< 5 µM	–	> 10 µM	< 35%	–	–
CCOc1ccccc1-c1nnc2n1N=C(c1ccc(NCC3CCCC3)cc1)CS2 [Entry 49]	–	> 10 µM	–	> 10 µM	–	–	–	–	–
CCOc1ccccc1-c1nnc2n1N=C(c1ccc(N3CCCC3=O)cc1)CS2 [Entry 63]	–	–	–	< 5 µM	35 to 70%	–	< 35%	–	–
